# Assay results: US6071896A, “Suppression of thromboxane levels by percutaneous administration of aspirin” (Gundersen Clinic, Ltd., priority 1998, dated 2000)
# Entries after “also recorded” stand apart in the source; their conditions may differ.
# Key:
# [1] = tested on: PGI2 formation in response to intravenous bradykinin; experiment: Urinary PGI-M excretion at rest and after bradykinin infusion, Example 3; assay type: in vivo, human; conditions: for PGI-M (stim) post ASA: bradykinin-stimulated
# Protocol: In an additional 4 subjects, we examined the increase in PGI2 formation in response to intravenous bradykinin prior to and following oral aspirin 75 mg or dermal aspirin 750 mg daily for 14 days. The protocol for bradykinin has been described previously [Clark, N.Engl.J.Med 325:1137 (1991)]. Volunteers were admitted after an overnight fast to the Clinical Research Center. Blood samples were obtained for serum TXB2 and the subject asked to void. Through a peripheral vein, 1 liter of normal saline was infused over 1 hour. After a further hour, bradykinin was infused in incremental doses of 100-800 ng/kg/min, each over 15 mm. The infusion was continued at the maximum tolerated dose for a total period of 2 hr. Blood pressure and heart rate were monitored continuously. Urine was collected in separate 2 hr aliquots prior to, during and following the bradykinin infusion.
# ^1 The excretion of TXM and PGIM before and following dermal aspirin
# 750 mg/day or oral aspirin 75 mg/day for 10 days. Urine samples were
# collected over 2 hr before (rest) and following the administration of […]
# [2] = Plasma aspirin levels following oral aspirin; assay type: in vivo; conditions: human
# Protocol: (§1) The preservation of vascular cyclooxygenase is consistent with the low bioavailability of the dermal aspirin. Plasma aspirin and salicylate were determined using a highly sensitive assay that can measure levels of <0.1 ng/ml. Following oral aspirin 325 mg or 162 mg, peak plasma aspirin levels were 2.0 and 1.3 ug/ml, respectively. In contrast, following dermal aspirin, plasma levels peaked at 237±114 ng/ml and plasma salicylate peaked at 788±114 ng/ml.
# gastric mucosa = conditions: cited from earlier work
# physchem = assay type: physicochemical
# thromboxane synthesis = conditions: cited from earlier work
# platelet cyclooxygenase = experiment: Serum TXB2 during and after dermal aspirin (index of platelet cyclooxygenase); assay type: in vivo, human
# Source text: In studying the effects of the methods of the present invention platelet cyclooxygenase activity was used as a measure of aspirin bioavailability, in addition to plasma drug levels. […] Inhibition of urinary TX-M followed a similar pattern. TX-M is a major enzymatic metabolite of TXB2 and its excretion is an index of TXA2 biosynthesis in vivo. In contrast, the vehicle alone had no effect on serum TXB2 or urinary TX-M. Following withdrawal of therapy, serum TXB2 and TX-M recovered gradually over a period of days. This is consistent with inhibition of platelet cyclooxygenase in vivo. As the enzyme is inhibited irreversibly, recovery of platelet TXA2 biosynthesis parallels the formation of new platelets, a process that has a half-life of 5 days.
# (§2) Only healthy male and female volunteers were studied. The subjects were asked to avoid aspirin and any other cyclooxygenase inhibitors for the 10 days before and throughout the period of investigation. Aspirin (acetyl salicylic acid, USP) powder was dissolved in propylene glycol and either isopropyl alcohol or ethanol (1.7:1 v/v) to a final concentration of 94 mg/ml. […] The aspirin preparation was made daily immediately prior to its application Volunteers attended the clinic where the preparation was applied and were asked not to wash the area for at least 12 hours. The aspirin solution was applied to the forearm and upper arm over a 15 min interval. Volunteers received aspirin 250 mg (n=4), aspirin 750 mg (n=6) or vehicle (n=6) for 10 days and were followed for 8 days following drug withdrawal. The volunteers were aged 31-56 years, with equal numbers of male and females in each treatment group.
# (§3) Blood without anticoagulant was obtained for serum TXB2, the stable metabolite of TXA2, prior to and at intervals during and following aspirin administration. The blood was allowed to clot in glass at 37° C. for 60 min and the serum removed and stored at -20° C. until analyzed. Urine was collected over 24 hours at corresponding times for measurement of 2,3-dinor-TXB2 (TX-M) and 2,3-dinor-6-keto-PGF1a (PGI-M), major enzymatic metabolites of TXA2 and PGI2, respectively [Lawson et al., Analyt. Biochem. 150:463 (1985); FitzGerald et al., N. Engl. J. Med. 310: 1065 (1984)]. Excretion of these products is an index of the in vivo formation of their parent compounds [FitzGerald et al., supra; Reilly and Fitzgerald, Blood 69: 180 (1987)]. Serum TXB2 and urinary metabolites were determined by negative ion-chemical ionization, gas chromatography-mass spectrometry (NICI-GCMS) using authentic deuterated standards, as previously described [Braden et al., supra].
# [3] = Plasma aspirin and salicylate after dermal aspirin (NICI-GCMS), Example 4; assay type: in vivo, human; conditions: dermal aspirin 750 mg, single application
# Protocol: as §1
# Aspirin was applied in a dose of 750 mg on one limb over a 15 min interval. Samples were drawn from the opposite arm. Blood was withdrawn into heparin (10 U/ml final concentration) and potassium fluoride (5% final concentration), the latter to prevent ex vivo metabolism of aspirin by plasma esterases. The plasma was separated immediately and stored at […] until analyzed. Aspirin and its metabolite, salicylic acid, were measured by NICI-GCMS using deuterium-labelled analogues as internal standards, as previously described [Clark, supra].
# [4] = tested on: pregnancy-induced hypertension and preeclamptic toxemia; conditions: daily doses, third trimester, women at high risk; cited from earlier work
# TXA2 biosynthesis = experiment: Urinary 2,3-dinor-TXB2 (TX-M) excretion, dermal aspirin, Example 2; assay type: in vivo, human
# Protocol: as §2, §3
# [5] = patients with rheumatic diseases
compound,measurement,setting,value
"CC(=O)Oc1ccccc1C(=O)O [aspirin, acetyl salicylic acid]",PGI-M (rest) post ASA,"[1]; Dermal aspirin 750 mg/day, PT 1, pre ASA 163",138
same,PGI-M (rest) post ASA,"[1]; Dermal aspirin 750 mg/day, PT 2, pre ASA 105",149
same,PGI-M (rest) post ASA,"[1]; Oral aspirin 75 mg/day, PT 1, pre ASA 104",63
same,PGI-M (rest) post ASA,"[1]; Oral aspirin 75 mg/day, PT 2, pre ASA 200",96
same,PGI-M (stim) post ASA,"[1]; Dermal aspirin 750 mg/day, PT 1, pre ASA 1520",1553
same,PGI-M (stim) post ASA,"[1]; Dermal aspirin 750 mg/day, PT 2, pre ASA 559",601
same,PGI-M (stim) post ASA,"[1]; Oral aspirin 75 mg/day, PT 1, pre ASA 433",173
same,PGI-M (stim) post ASA,"[1]; Oral aspirin 75 mg/day, PT 2, pre ASA 340",132
same,Resting and bradykinin-stimulated PGI-M excretion,[1]; dermal aspirin 750 mg/day,PGI2 formation in response to bradykinin infusion was also unaltered; also recorded: largely unaltered; also recorded: had not effect on
same,Resting and bradykinin-stimulated PGI-M excretion,[1]; oral aspirin 75 mg/day,suppressed basal and bradykinin-stimulated PGI-M excretion; also recorded: decrease in urinary PGI-M at rest and following stimulation with bradykinin
same,Cmax,"[2]; oral aspirin 75 mg, read-out: Levels following oral aspirin",1000 to 2000 ng/mL
same,Cmax,"[2]; oral aspirin 162 mg, read-out: Peak plasma aspirin level",1300 ng/mL
same,Cmax,"[2]; oral aspirin 325 mg, read-out: Peak plasma aspirin level",2000 ng/mL
same,"Gastric mucosa damage, occult bleeding",gastric mucosa; applied topically to gastrointestinal tissue,damages gastric mucosa and induces occult gastrointestinal bleeding
same,Effects on gastric mucosa,gastric mucosa; intravenous/parenteral vs oral,less pronounced with parenteral than with oral administration
same,Bleeding,gastric mucosa; oral diluted solutions vs similar doses in tablet form,considerably less bleeding than similar doses in tablet form
same,Erythema of the gastric mucosa,gastric mucosa; [5],approximately 80 % of patients
same,Gastric erosions,gastric mucosa; [5],approximately 40 % of patients
same,Gastric ulcer,gastric mucosa; [5],15 % of patients
same,degraded at 24 h,"physchem; 24 hr, room temperature, propylene glycol and isopropyl alcohol or ethanol (1.7:1 v/v), 94 mg/ml, read-out: Salicylate detected in vehicle (aspirin stability)",< 1%
same,Stability of aspirin in vehicle,"physchem; propylene glycol and alcohol vehicle, 24 hr room temperature",stable
same,"Thromboxane-B2 synthesis in vitro and urinary 2,3-dinor-thromboxane-B2",thromboxane synthesis; approximately 40 mg/day,"inhibit thromboxane-B2 synthesis in vitro and to reduce the urinary excretion of 2,3-dinor-thromboxane-B2"
same,TXA2 and PGI2 synthesis,"thromboxane synthesis; approximately 1,000 mg/day",inhibits both TXA2 and PGI2 synthesis
same,Maternal and neonatal thromboxane,"thromboxane synthesis; low doses, women at risk for pregnancy-induced hypertension","selectively suppress maternal thromboxane levels, but only partially suppressed neonatal thromboxane"
same,Inhibition of platelet cyclooxygenase,platelet cyclooxygenase; aspirin absorbed through the skin,marked and selective inhibition of platelet cyclooxygenase
same,"Serum TXB2 recovery, day 8 after withdrawal",platelet cyclooxygenase; dermal aspirin 250 mg/day,93±7 % of baseline
same,"Serum TXB2 (fall in), day 10","platelet cyclooxygenase; dermal aspirin 250 mg/day, n=4, p<0.01",55±11%
same,"Serum TXB2 recovery, day 8 after withdrawal",platelet cyclooxygenase; dermal aspirin 750 mg/day,65±9 % of baseline
same,Serum TXB2 response,"platelet cyclooxygenase; dermal aspirin 750 mg/day, n=6",progressive reduction in serum TXB2 in all but one of the volunteers
same,"Serum TXB2, day 10 of application","platelet cyclooxygenase; dermal aspirin 750 mg/day, n=5 (one non-responder excluded), p=0.003",5±3 % of baseline
same,Decrease in serum TXB2 in the subjects of Example 4,"platelet cyclooxygenase; dermal aspirin, subjects selected for pharmacokinetics",> 90%
same,"Maximum inhibition of platelet cyclooxygenase, as measured by serum TXB2","platelet cyclooxygenase; dermal, highest dose, 10 days",exceeded 95%
same,Plasma aspirin up to three hours,[3],barely detectable
same,concentration at 24 h,"[3]; human, plasma, topical or ocular",4 ± 3 ng/mL
same,Cmax,"[3]; human, plasma, topical or ocular, read-out: Plasma aspirin, about 3 h (peak)",237 ± 114 ng/mL
same,concentration at 6 h,"[3]; human, plasma, topical or ocular, read-out: Plasma aspirin, six hours",52 ± 14 ng/mL
same,Incidence of pregnancy-induced hypertension and preeclamptic toxemia,[4],significantly reduce the incidence of pregnancy-induced hypertension and preeclamptic toxemia
same,"Urinary TX-M excretion, 8 days following drug withdrawal",TXA2 biosynthesis; dermal aspirin 750 mg/day,65±9 % of pretreatment value
same,"Urinary TX-M excretion, day 10","TXA2 biosynthesis; dermal aspirin 750 mg/day, n=5, p=0.002, baseline 498±76 pg/mg creatinine",32±7 % of baseline
same,Urinary TX-M excretion response,TXA2 biosynthesis; dermal aspirin 250 and 750 mg/day,dose dependent reduction in the urinary excretion of TX-M
